Measurements reported in patent US8236963B2, “Tricyclic spiro derivatives as CRTH2 modulators” (Merck Serono SA, priority 2005, dated 2012).

What was measured:
[1] = tested on: DNFB-induced ear swelling; assay: CHS model (contact hypersensitivity to DNFB, ear swelling); format: in vivo, Balb/c mice; conditions: 60 mg/kg; po; 30 min before DNFB challenge; ear thickness on day 6
From the text: The contact hypersensitivity model can be used to evaluate the therapeutic efficacy of spiro derivatives on skin inflammation mediated by T cells. The model is well established for characterization of compound for dermatological indications like psoriasis and allergic contact dermatitis (Xu et al. J Exp Med. 183, 1001-12, 1996). It involves a sensitization phase and a subsequent challenge with an antigen (DNFB, 2,4-dinitrofluorbenzene). […] The edema can be measured by caliper at the challenged site (ear of the mice). Intravenous or oral administration with 10% Labrasol as vehicle of the compounds of the invention 30 min before challenge with DNFB results in a decrease of the swelling and therefore reduces inflammation in the skin compared to positive controls treated with vehicle only before challenge with the antigen. Negative control mice are not sensitized, but challenged with DNFB, therefore no T cell dependent inflammation occurs and no edema is formed. Balb/c mice were obtained from CharlesRiver (Calcco, Italy). […]
Mice were sensitized and challenged to elicit CHS to DNFB. […] Ear thickness was monitored on day 6 (1 day after challenge) using a caliper (Mitutoyo, Milan, Italy). Ear swelling was calculated as ((Tn−T5)right ear−(Tn−T5)left ear), wherein Tn and T5 represent values of ear thickness at day n of investigation and day 5 prior to challenge, respectively.

[2] = tested on: DK-PGD2-induced vascular leakage; assay: Model of DK-PGD2-induced vascular leakage in mice; format: in vivo, Balb/c mice; conditions: Mus musculus, 1.5 h; dose of 30 mg/kg; 30 min before DK-PGD2 challenge; Evans blue extravasation
Description: This test is described in Takeshita et al. (2004). Balb/c mice (Elevage Janvier) (8 week old) received an intradermal injection of DK-PGD2 (10 μg in 30 μl) on their shaved backs and an intravenous injection of Evans blue solution (25 mg/kg) 30 min after administration of the test molecules (spiro derivative). Ninety minutes after the challenge, the animals were sacrificed. The skin of the back was removed and blood was sampled. The extravasated dye (punch diameter: 5 mm) was extracted by 0.2 ml of formamide and was quantified by fluorescence (E1: 585 nm, E2: 660 nm). The Evans Blue extravasation ratio was expressed as the following: skin/serum×1000.

CRTH2 = target: T1, CRTH2 (Homo sapiens, UniProt Q9Y5Y4); assay: Determination of Ki (radioligand binding assay, equilibrium competition against [3H]PGD2); parameters: expressed in transfected cells; host or cells: HEK293 (EBNA) cells, membrane preparation; conditions: average of at least three independent dose response experiments
T1 sequence (Q9Y5Y4 1-395): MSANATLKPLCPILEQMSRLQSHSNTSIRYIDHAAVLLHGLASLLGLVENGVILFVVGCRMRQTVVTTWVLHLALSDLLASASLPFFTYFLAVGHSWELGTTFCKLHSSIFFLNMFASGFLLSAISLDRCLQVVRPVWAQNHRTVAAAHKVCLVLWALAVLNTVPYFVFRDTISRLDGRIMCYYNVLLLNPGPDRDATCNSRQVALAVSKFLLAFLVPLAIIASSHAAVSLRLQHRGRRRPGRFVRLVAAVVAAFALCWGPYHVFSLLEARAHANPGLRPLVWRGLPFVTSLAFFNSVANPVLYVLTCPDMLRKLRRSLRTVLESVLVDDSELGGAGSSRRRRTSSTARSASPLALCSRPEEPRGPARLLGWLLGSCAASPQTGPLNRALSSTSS
Description: The inhibitory activity can be investigated by a radioligand binding assay (Sawyer et al., Br. J. Pharmocol 2002, 137, 1163-72). The radioligand binding assay was performed at room temperature in binding buffer (10 mM HEPES/KOH pH […], with protease inhibitor cocktail tablets), containing 1.5 nM [^3H]PGD2 (Amersham, 156 Cie/mmol), and 10 μg of hCRTH2 HEK293 (EBNA) cell membrane protein in a final volume of 100 μl in 96 well plates (Corning, USA). Non-specific binding was determined in the presence of 1 μM PGD2 (Cayman, USA). Competing spiro-indolinones were diluted in dimethylsulphoxide so that the total volume of dimethylsulfoxide was kept constant at 1% dimethylsulphoxide (Me2SO) Serial dilutions of 100 μM and […] were prepared. 10 μl each of these spiro-indolinone stock solutions were added. Incubation (60 min at room temperature) was terminated by rapid filtration through 96 wells hydrophobic GF/C Unifilter plates (Whatman, USA). Filters were washed twice with 250 μl of Tris-HCl pH 7.4, 10 mM MnCl2, and residual radioligand bound to the filters was mixed to 100 μl of liquid scintillation cocktail (Optiphase Supermix, Perkin Elmer, USA) and binding activity was determined by counting residual radioligand using a 1450 Micro-beta scintillation counter (Wallac, UK). The following representative compounds were tested. All inhibited the binding of PGD2 to CRTH2 by more than 70%. • (1′-benzyl-5-chloro-2,2′,5′-trioxospiro[indole-3,3′-pyrrolidin]-1(2H)-yl)acetic acid • (1′-benzyl-5-fluoro-2,2′,5′-trioxospiro[indole-3,3′-pyrrolidin]-1(2H)-yl)acetic acid • 4-(1′-allyl-5-chloro-2,2′,5′-trioxospiro[indole-3,3′-pyrrolidin]-1(2H)-yl)butanoic acid • [5-chloro-1′-(2-methoxyethyl)-2,2′,5′-trioxospiro[indole-3,3′-pyrrolidin]-1(2H)-yl]acetic acid • 4-(1′-benzyl-5-chloro-2,2′,5′-trioxospiro[indole-3,3′-pyrrolidin]-1(2H)-yl)butanoic acid • (1′-benzyl-5-methoxy-2,2′,5′-trioxospiro[indole-3,3′-pyrrolidin]-1(2H)-yl)acetic acid • [5-fluoro-1′-[(2-methoxyethoxy)methyl]-2,2′,5′-trioxospiro[indole-3,3′-pyrrolidin]-1(2H)-yl]acetic acid • 4-(1′-allyl-5-fluoro-2,2′,5′-trioxospiro[indole-3,3′-pyrrolidin]-1(2H)-yl)butanoic acid • 4-(1′-benzyl-5-fluoro-2,2′,5′-trioxospiro[indole-3,3′-pyrrolidin]-1(2H)-yl)butanoic acid
Ki values were determined by equilibrium competition binding experiments against [^3H]PGD2. Ki values were calculated from the formula below and represent the average of at least three independent dose response experiments. The Ki values give the ligand concentrations necessary to inhibit 50% of the binding of [^3H]PGD2 to CRTH2. Ki=IC50/(1+[Concentration of Ligand]/Kd)]
All experiments were performed in 96 well plates, in a final volume of 100 μl according to the above described filtration assay. The concentration of membranes and 3 [H]PGD2, as well as the positive and negative controls were identical to the conditions described above.

Compound | reduction in ear swelling [1] [%] | inhibition in vivo at 30 mg/kg [2] [%] | Ki (CRTH2) [nM]
O=C(O)CN1C(=O)[C@]2(CC(=O)N(Cc3cccc(Cl)c3)C2=O)c2cc(Cl)ccc21 [Compound 83, (3S)-[5-chloro-1′-(3-chlorobenzyl)-2,2′,5′-trioxospiro[indole-3,3′-pyrrolidin]-1(2H)-yl]acetic acid] | 40 | 77 | 
O=C(O)CN1C(=O)C2(NC(=O)N(Cc3cc(Cl)ccc3F)C2=O)c2cc(Cl)ccc21 (stereo not shown) [Compound 105, [5′-chloro-1-(5-chloro-2-fluorobenzyl)-2,2′,5-trioxospiro[imidazolidine-4,3′-indol]-1′(2′H)-yl]acetic acid] | 55 | 60 | 16
O=C(O)CN1C(=O)[C@@]2(CC(=O)N(Cc3ccccc3F)C2=O)c2cc(Cl)ccc21 [Compound 109, (3R)-[5-chloro-1′-(2-fluorobenzyl)-2,2′,5′-trioxospiro[indole-3,3′-pyrrolidin]-1(2H)-yl]acetic acid] |  | 38 | 28
O=C(O)CN1C(=O)[C@]2(CC(=O)N(Cc3cc(Cl)ccc3F)C2=O)c2cc(Cl)ccc21 [Compound 111, (3S)-[5-chloro-1′-(2-fluoro-5-chlorobenzyl)-2,2′,5′-trioxospiro[indole-3,3′-pyrrolidin]-1(2H)-yl]acetic acid] |  | 65 | 470
O=C(O)CN1C(=O)[C@@]2(CC(=O)N(Cc3cc(Cl)ccc3F)C2=O)c2cc(Cl)ccc21 [Compound 112, (3R)-[5-chloro-1′-(2-fluoro-5-chlorobenzyl)-2,2′,5′-trioxospiro[indole-3,3′-pyrrolidin]-1(2H)-yl]acetic acid] |  | 61 | 150
O=C(O)CN1C(=O)C2(CC(=O)N(Cc3ccccc3)C2)c2cc(Cl)ccc21 (stereo not shown) [Compound 113, (1′-benzyl-5-chloro-2,5′-dioxospiro[indole-3,3′-pyrrolidin]-1(2H)-yl)acetic acid] |  | 55 | 630
Cc1noc(-c2ccccc2)c1CN1CC2(CC1=O)C(=O)N(CC(=O)O)c1ccc(Cl)cc12 (stereo not shown) [Compound 114, [5-chloro-1′-[(3-methyl-5-phenylisoxazol-4-yl)methyl]-2,5′-dioxospiro[indole-3,3′-pyrrolidin]-1(2H)-yl]acetic acid] |  | 44 | 3.4
O=C(O)CN1C(=O)C2(CC(=O)N(Cc3ccccc3F)C2)c2cc(Cl)ccc21 (stereo not shown) [Compound 115, [5-chloro-1′-(2-fluorobenzyl)-2,5′-dioxospiro[indole-3,3′-pyrrolidin]-1(2H)-yl]acetic acid] |  | 45 | 140
O=C(O)CN1C(=O)C2(CC(=O)N(Cc3cc(Cl)ccc3F)C2)c2cc(Cl)ccc21 (stereo not shown) [Compound 116, [5-chloro-1′-(5-chloro-2-fluorobenzyl)-2,5′-dioxospiro[indole-3,3′-pyrrolidin]-1(2H)-yl]acetic acid] |  | 51 | 22
